Laboratory results as given in article PMC9817970 (Cancers, 2022).
Where “and” joins values, the source holds several entries; their conditions need not be identical. Equal entries are not always repeated.

Key:
GIST-T1 cells [1] = experiment: Apoptosis analysis (annexinV/PI flow cytometry); assay type: cell-based, human; settings: GIST-T1, 0.05 μM
Method: (§1) After compound treatment in GIST-T1 and HMC1.2 cells for 24 h, cells were fixed with 70% cold ethanol. Then, cells were incubated with 50 μg propidium iodide/mL solution (PI, Sigma) containing 1 mg RNase A/mL for 30 min in the dark. Cell cycle arrest was analyzed (BD Accuri), and data were processed using BD Accuri^TM C6 software. For apoptosis analysis, compound treatment for 24–48 h, cells were harvested and stained with annexinV and PI solution. 1 × 10^5 cells were analyzed using flow cytometric analysis.

HMC1.2 cells [2] = experiment: Apoptosis analysis (annexinV/PI flow cytometry); assay type: cell-based, human; settings: HMC1.2, 1 μM, 48 h
Method: as §1

HMC1.2 cells [3] = experiment: Cell viability assay (CellTiter-Glo); assay type: cell-based, human; settings: Homo sapiens, 72 h
Method: (§2) GIST-T1 (Cosmobio, Tokyo, Japan, # PMC-GIST01C-COS) cells were cultured in DMEM (Welgene, # LM001-05) and HMC1.2 (Merck, Darmstadt, Germany, # SCC062) cells were cultured in IMDM (Welgene, # LM004-01). Parental Ba/F3 (DSMZ, Braunschweig, Germany, # ACC300) cells were cultured in RPMI (Welgene, # LM011-51) with 10 ng IL-3/mL (Enzo, # ALX-201-821). The culture media was supplemented with 10% fetal bovine serum and 1% penicillin/streptomycin solution. The cells were maintained in a humidified atmosphere containing 5% CO2 at 37 °C.
(§3) Cells (GIST-T1: 5.0 × 10^3; HMC1.2: 1 × 10^4) were seeded in 96-well plates. Each compound was treated in each well at 10 dose points of 3-fold serial dilution. After treatment with each compound for 72 h, CellTiter-Glo solution (Promega, # G7572) was added to each well. Anti-proliferation activity was measured the luminescence using a 96-well plate reader (EnVision 2013).

[4] = test system: c-KIT auto-phosphorylation in c-KIT D816V Ba/F3 cells; experiment: Western blot of c-KIT signaling; assay type: cell-based; settings: 10 μM
Method: (§4) Cells were harvested and lysed using RIPA buffer containing 50 mM HEPES (pH 7.4), 1% Triton X-100, 2 mM EDTA, 150 mM NaCl, 2.5 mM NaF, 5 mM Na3VO4, and protease inhibitor cocktail tablet (Roche, # 11–878-580–001). Proteins were separated and transferred to an NC membrane. The membranes were blocked using 5% skim milk in TBS-T buffer. The p-c-KIT (Tyr703, # 3073), p-AKT (Ser473, # 9271), p-ERK (Thr202/Tyr204, # 8544), ERK (# 4695), p-PLCγ (Tyr783, # 14008), p-STAT3 (Tyr705, # 4074), and PARP (# 9542) antibodies were obtained from Cell Signaling Technologies. The β-actin (# sc-47778) and STAT3 (# sc-482) antibodies were obtained from Santa Cruz Biotechnology. AKT (A18120) antibody was purchased from ABclonal. Each primary antibody was incubated overnight at 4 °C. The secondary antibody (GenDEPOT) was incubated for 1 h at room temperature. Proteins were detected using ECL substrate.

c-KIT V560G/D816V = biological target: T1, c-KIT V560G/D816V (Homo sapiens, UniProt P10721, D816V/V560G); experiment: ADP-Glo kinase assay on c-KIT V560G/D816V; assay type: biochemical
T1 construct: purchased Promega VA7063
Method: (§5) Biochemical kinase assays on c-KIT protein kinase were performed at Reaction Biology Corp. (San Diego, CA, USA). […] The kinase assay followed the manufacturer’s instruction. IC50 values were calculated by GraphPad prism 8.0 software (GraphPad Software, San Diego, CA, USA).

parental Ba/F3 cells = experiment: Anti-proliferative activity on Ba/F3 cells; assay type: cell-based; settings: Mus musculus, BaF3
Method: as §2, §3

c-KIT [5] = biological target: T2, c-KIT (Homo sapiens, UniProt P10721); experiment: Radiometric biochemical kinase assay on c-KIT; set-up: purchased Reaction Biology Corp. (contract assay service)
Method: as §5
Enzymatic inhibitory activities of all synthesized thiazolo[5,4-b]pyridine derivatives against c-KIT were measured using radiometric biochemical kinase assays (Table 1). We first explored the R1 group of the thiazolo[5,4-b]pyridine scaffold.

GIST-T1 cells [6] = experiment: Cell viability assay (CellTiter-Glo); assay type: cell-based; settings: Homo sapiens, GISTT1; 72 h; concentration causing half-maximal growth inhibition
Method: as §2, §3

[7] = test system: c-KIT auto-phosphorylation in HMC1.2 cells; experiment: Western blot of c-KIT signaling; assay type: cell-based, human; settings: 10 μM
Method: as §4

[8] = test system: phosphorylated c-KIT (Tyr703) and downstream signaling in GIST-T1 cells; experiment: Western blot of c-KIT signaling; assay type: cell-based, human
Method: as §4

c-KIT [9] = biological target: T2, c-KIT; experiment: Kinase panel profiling; assay type: biochemical; set-up: purchased Reaction Biology Corp; settings: 10 μM ATP
Method: Kinase panel profiling was conducted by Reaction Biology Corp. (San Diego, CA, USA). A single dose (1.0 μM) of 6r was tested against 371 recombinant human kinases in the presence of 10 μM ATP.

GIST-T1 cells [10] = experiment: Migration (wound healing) assay; assay type: cell-based, human; settings: GIST-T1, 0.005 μM and 0.05 μM, 36 h
Method: GIST-T1 cells were seeded in 6-well plates at 2 × 10^6 cells. Next day, cells were washed with PBS and wounded in the center of each well. Then, GIST-T1 cells were washed with PBS and added to fresh DMEM.

c-KIT D816V Ba/F3 cells [11] = experiment: Anti-proliferative activity on Ba/F3 cells; assay type: cell-based; settings: Mus musculus, BaF3
c-KIT D816V Ba/F3 cells [12] = experiment: Cell cycle arrest analysis (PI flow cytometry); assay type: cell-based; settings: c-KIT D816V Ba/F3, 0.5 μM, 24 h

Q: For `Cc1ccc(NC(=O)c2ccc(CN3CCN(C)CC3)c(C(F)(F)F)c2)cc1-c1cnc2sc(N)nc2c1` [6r], which “production of apoptotic cells” value (GIST-T1 cells [1]) is on record?
A: The value was “remarkably induced”.

Q: And the “production of apoptotic cells” value (HMC1.2 cells [2])?
A: Its value is “remarkably induced”.

Q: And the GI50 (HMC1.2 cells [3])?
A: The GI50 was 1150 ± 960 nM.

Q: What about the c-KIT auto-phosphorylation [4] of the same molecule?
A: Its c-KIT auto-phosphorylation is “completely inhibited”.

Q: What about the IC50 (c-KIT V560G/D816V; ADP-Glo kinase assay, 10 μM ATP) of the same molecule?
A: Its IC50 is 4770 ± 380 nM.

Q: And the “fold higher enzymatic inhibitory activity against c-KIT V560G/D816V compared with imatinib” value (c-KIT V560G/D816V; versus imatinib)?
A: The value was 4.9- to 8.0 fold and 8.0 fold.

Q: What about the GI50 (parental Ba/F3 cells) of the same molecule?
A: Its GI50 is 8060 ± 570 nM.

Q: And the IC50 (c-KIT [5]; read-out: IC50 against c-KIT)?
A: The IC50 was 140 nM.

Q: What about the “fold enhanced c-KIT inhibitory activity compared to 6m” value (c-KIT [5]; versus 6m) of the same molecule?
A: Its value is 15.5 fold.

Q: And the “fold higher c-KIT inhibitory activity than imatinib” value (c-KIT [5]; versus imatinib)?
A: The value was 1.9 fold.

Q: What about the GI50 (GIST-T1 cells [6]) of the same molecule?
A: Its GI50 is 10 nM.

Q: And the c-KIT auto-phosphorylation [7]?
A: Its c-KIT auto-phosphorylation is “completely inhibited”.

Q: And the “levels of phosphorylated c-KIT (Tyr703) and downstream mediators p-AKT, p-ERK, p-PLCγ, p-STAT3” value [8]?
A: The value was “remarkably inhibited”.

Q: And the inhibition at 1 µM (c-KIT [9])?
A: The inhibition at 1 µM was 98.7%.

Q: What about the “cell migration decreased compared to control” value (GIST-T1 cells [10]) of the same molecule?
A: The value was 50–70%.

Q: And the GI50 (c-KIT D816V Ba/F3 cells [11])?
A: Its GI50 is 1110 ± 470 nM.

Q: What about the “G0/G1 arrest compared with imatinib” value (c-KIT D816V Ba/F3 cells [12]) of the same molecule?
A: Its value is “more strongly”.
